Measured values reported in patent US9078444B2, “Isothiazoline derivatives as insecticidal compounds” (Syngenta Participations AG, priority 2011, dated 2015).
Like-named read-outs stand apart in the source and are kept apart here.

How the values were obtained:
Format in all cases: in vivo
Plutella xylostella = Plutella xylostella (diamond back moth) artificial diet test; conditions: 144 h, 200 ppm (concentration in well 18 ppm), L2 larvae, larval mortality and growth regulation after 6 days
Description: (§1) Plutella xylostella (Diamond Back Moth): 24-well microtiter plate (MTP) with artificial diet was treated with test solutions at an application rate of 200 ppm (concentration in well 18 ppm) by pipetting. After drying, the MTPs were infested with L2 larvae (7-12 per well). After an incubation period of 6 days, samples were checked for larval mortality and growth regulation.

Spodoptera littoralis [1] = assay: Spodoptera littoralis persistence test on sprayed cotton plants (increased safety profile / bio-degradability); conditions: for pest or weed control at 12.5 ppm: Spodoptera littoralis
Description: Biological Examples Showing Increased Safety Profile:
Spodoptera littoralis (Egyptian Cotton Leafworm)
Cotton plants in the 5th leaf stage (around 5 weeks old) are treated in an automated turn table spray chamber. Plants are stored in the greenhouse length during the whole test period.
2, 16 and optionally 10 days after treatment 4 leaves from each sample are excised, placed into 14 cm plastic petri dishes on wet filter paper. The infestation of 10 L3-Spodoptera littoralis is made immediately afterwards. After an incubation period of 6 days the samples are checked for mortality.
In the following series of experiments the compounds of the invention are compared with the corresponding isoxazoline analogues from the prior art on Spodoptera littoralis (Egyptian cotton leafworm) performed as described in the method above.

Spodoptera littoralis [2] = assay: Spodoptera littoralis (Egyptian cotton leafworm) cotton leaf disc test; conditions: foliar, 72 h, 200 ppm sprayed on cotton leaf discs, mortality, feeding behavior, growth regulation 3 days after treatment
Description: Spodoptera littoralis (Egyptian Cotton Leafworm): Cotton leaf discs were placed on agar in a 24-well microtiter plate and sprayed with test solutions at an application rate of 200 ppm. After drying, the leaf discs were infested with […]. The samples were checked for mortality, feeding behavior, and growth regulation 3 days after treatment (DAT).

Thrips tabaci = Thrips tabaci (onion thrips) sunflower leaf disc test; conditions: foliar, 168 h, 200 ppm sprayed on sunflower leaf discs, mixed ages, mortality after 7 days
Description: Thrips tabaci (Onion Thrips): Sunflower leaf discs were placed on agar in a 24-well microtiter plate and sprayed with test solutions at an application rate of 200 ppm. After drying, the leaf discs were infested with a thrips population of mixed ages. After an incubation period of 7 days, samples were checked for mortality.

Diabrotica balteata = Diabrotica balteata (corn root worm) artificial diet test; conditions: 120 h, 200 ppm (concentration in well 18 ppm), L2 larvae, larval mortality and growth regulation after 5 days
Description: as §1, with “Diabrotica balteata (Corn Root Worm): A” for “Plutella xylostella (Diamond Back Moth):”, “(6-10” for “(7-12”, “5” for “6”

Heliothis virescens = Heliothis virescens (tobacco budworm) egg test on artificial diet; conditions: 96 h, 200 ppm (concentration in well 18 ppm), eggs on artificial diet, egg mortality, larval mortality, growth regulation after 4 days
Description: Heliothis virescens (Tobacco Budworm): Eggs (0-24 h old) were placed in 24-well microtiter plate on artificial diet and treated with test solutions at an application rate of 200 ppm (concentration in well 18 ppm) by pipetting. After an incubation period of 4 days, samples were checked for egg mortality, larval mortality, and growth regulation.

Tetranychus urticae = Tetranychus urticae (two-spotted spider mite) bean leaf disc test; conditions: foliar, 192 h, 200 ppm sprayed on bean leaf discs, mixed ages, egg, larval and adult mortality 8 days later
Excerpt: Tetranychus urticae (Two-Spotted Spider Mite): Bean leaf discs on agar in 24-well microtiter plates were sprayed with test solutions at an application rate of 200 ppm. After drying, the leaf discs are infested with mite populations of mixed ages. 8 days later, discs are checked for egg mortality, larval mortality, and adult mortality.

[3] = 48 h, 12.5 ppm on cotton plants, leaves excised 2 days after treatment, 10 L3 larvae, mortality after 6 days incubation, read-out: Control after 2 days/%
[4] = 384 h, 12.5 ppm on cotton plants, leaves excised 16 days after treatment, 10 L3 larvae, mortality after 6 days incubation, read-out: Control after 16 days/%

## Cc1cc(C2=NSC(c3cc(Cl)c(Cl)c(Cl)c3)(C(F)(F)F)C2)ccc1C(=O)NCC(=O)NCC(F)(F)F (centres unmarked) [Compound D1, 2-methyl-N-[2-oxo-2-(2,2,2-trifluoroethylamino)ethyl]-4-[5-(3,4,5-trichlorophenyl)-5-(trifluoromethyl)-4H-isothiazol-3-yl]benzamide]
Plutella xylostella
  pest or weed control at 200 ppm: ≥ 80%
Spodoptera littoralis [1]; [3]
  pest or weed control at 12.5 ppm: 100%
Spodoptera littoralis [1]; [4]
  pest or weed control at 12.5 ppm: 10%
Spodoptera littoralis [2]
  pest or weed control at 200 ppm: ≥ 80%
Thrips tabaci
  pest or weed control at 200 ppm: ≥ 80%
Diabrotica balteata
  pest or weed control at 200 ppm: ≥ 80%
Heliothis virescens
  pest or weed control at 200 ppm: ≥ 80%
Tetranychus urticae
  pest or weed control at 200 ppm: ≥ 80%

## Cc1cc(C2=NSC(c3cc(Cl)cc(Cl)c3)(C(F)(F)F)C2)ccc1C(=O)Nc1ccc(F)cc1 (centres unmarked) [Compound A59]
Plutella xylostella
  pest or weed control at 200 ppm: ≥ 80%
Spodoptera littoralis [1]; [3]
  pest or weed control at 12.5 ppm: 100%
Spodoptera littoralis [1]; [4]
  pest or weed control at 12.5 ppm: 10%
Spodoptera littoralis [2]
  pest or weed control at 200 ppm: ≥ 80%
Thrips tabaci
  pest or weed control at 200 ppm: ≥ 80%
Diabrotica balteata
  pest or weed control at 200 ppm: ≥ 80%
Heliothis virescens
  pest or weed control at 200 ppm: ≥ 80%
Tetranychus urticae
  pest or weed control at 200 ppm: ≥ 80%

## Cc1cc(C2=NSC(c3cc(Cl)cc(Cl)c3)(C(F)(F)F)C2)ccc1C(=O)NC(C)c1ccccc1 (centres unmarked) [Compound A12]
Plutella xylostella
  pest or weed control at 200 ppm: ≥ 80%
Spodoptera littoralis [1]; [3]
  pest or weed control at 12.5 ppm: 30%
Spodoptera littoralis [2]
  pest or weed control at 200 ppm: ≥ 80%
Thrips tabaci
  pest or weed control at 200 ppm: ≥ 80%
Diabrotica balteata
  pest or weed control at 200 ppm: ≥ 80%
Heliothis virescens
  pest or weed control at 200 ppm: ≥ 80%
Tetranychus urticae
  pest or weed control at 200 ppm: ≥ 80%

## CO/N=C/NC(=O)c1ccc(C2=NSC(c3cc(Cl)cc(Cl)c3)(C(F)(F)F)C2)cc1C (centres unmarked) [Compound C1, 4-[5-(3,5-dichlorophenyl)-5-(trifluoromethyl)-4H-isothiazol-3-yl]-N-[(E)-methoxyiminomethyl]-2-methyl-benzamide]
Plutella xylostella
  pest or weed control at 200 ppm: ≥ 80%
Spodoptera littoralis [1]; [3]
  pest or weed control at 12.5 ppm: 100%
Spodoptera littoralis [1]; [4]
  pest or weed control at 12.5 ppm: 5%
Spodoptera littoralis [2]
  pest or weed control at 200 ppm: ≥ 80%
Thrips tabaci
  pest or weed control at 200 ppm: ≥ 80%
Diabrotica balteata
  pest or weed control at 200 ppm: ≥ 80%
Heliothis virescens
  pest or weed control at 200 ppm: ≥ 80%
Tetranychus urticae
  pest or weed control at 200 ppm: ≥ 80%

## Cc1cc(C2=NSC(c3cc(Cl)cc(Cl)c3)(C(F)(F)F)C2)ccc1C(=O)NCC1CC1 (centres unmarked) [Compound A53]
Plutella xylostella
  pest or weed control at 200 ppm: ≥ 80%
Spodoptera littoralis [1]; [3]
  pest or weed control at 12.5 ppm: 85%
Spodoptera littoralis [1]; [4]
  pest or weed control at 12.5 ppm: 0%
Spodoptera littoralis [2]
  pest or weed control at 200 ppm: ≥ 80%
Thrips tabaci
  pest or weed control at 200 ppm: ≥ 80%
Diabrotica balteata
  pest or weed control at 200 ppm: ≥ 80%
Heliothis virescens
  pest or weed control at 200 ppm: ≥ 80%
Tetranychus urticae
  pest or weed control at 200 ppm: ≥ 80%

## CO/N=C/NC(=O)c1ccc(C2=NSC(c3cc(Cl)cc(Cl)c3)(C(F)(F)F)C2)cc1Cl (centres unmarked) [Compound C3, 2-chloro-4-[5-(3,5-dichlorophenyl)-5-(trifluoromethyl)-4H-isothiazol-3-yl]-N-[(E)-methoxyiminomethyl]benzamide]
Plutella xylostella
  pest or weed control at 200 ppm: ≥ 80%
Spodoptera littoralis [1]; [3]
  pest or weed control at 12.5 ppm: 100%
Spodoptera littoralis [1]; [4]
  pest or weed control at 12.5 ppm: 0%
Spodoptera littoralis [2]
  pest or weed control at 200 ppm: ≥ 80%
Thrips tabaci
  pest or weed control at 200 ppm: ≥ 80%
Diabrotica balteata
  pest or weed control at 200 ppm: ≥ 80%
Heliothis virescens
  pest or weed control at 200 ppm: ≥ 80%
Tetranychus urticae
  pest or weed control at 200 ppm: ≥ 80%

## Cc1cc(C2=NSC(c3cc(Cl)cc(Cl)c3)(C(F)(F)F)C2)ccc1C(=O)NC1CS(=O)(=O)C1 (centres unmarked) [Compound A02, 4-[5-(3,5-dichlorophenyl)-5-(trifluoromethyl)-4H-isothiazol-3-yl]-N-(1,1-dioxothietan-3-yl)-2-methyl-benzamide]
Plutella xylostella
  pest or weed control at 200 ppm: ≥ 80%
Spodoptera littoralis [1]; 12.5 ppm on cotton plants, leaves excised 10 days after treatment, 10 L3 larvae, mortality after 6 days incubation
  Control after 10 days/%: 35%
Spodoptera littoralis [1]; 48 h, read-out: Control after 2 days/%
  pest or weed control at 12.5 ppm: 100%
Spodoptera littoralis [1]; 384 h, read-out: Control after 16 days/%
  pest or weed control at 12.5 ppm: 5%
Spodoptera littoralis [2]
  pest or weed control at 200 ppm: ≥ 80%
Thrips tabaci
  pest or weed control at 200 ppm: ≥ 80%
Diabrotica balteata
  pest or weed control at 200 ppm: ≥ 80%
Heliothis virescens
  pest or weed control at 200 ppm: ≥ 80%
Tetranychus urticae
  pest or weed control at 200 ppm: ≥ 80%
